Results as given in patent US20260240818A1, “METHODS FOR THE TREATMENT OF FOOD ALLERGY” (INSTITUT NATIONAL DE LA SANTÉ ET DE LA RECHERCHE MÉDICALE, priority 2023, published 2026).
Entries after “also recorded” stand apart in the source; their conditions may differ.

Tests used:
peanut-sensitized mice = assay: Peanut allergy mouse model: clinical score and diarrhoea after oral peanut extract challenge; assay type: in vivo; conditions: for clinical score / incidence of diarrhoea: FOS-enriched diet; for clinical score: average of days 1-3 of oral PE challenge; for incidence of diarrhoea: oral PE challenge
Protocol: All mice were bred and maintained on a peanut- and soy-free diet under specific pathogen-free conditions until the start of the experiment.
Pyridoxamine: pyridoxamine dihydrochloride (Sigma-Aldrich, France) is added to drinking water at 1 mg/ml throughout the experiment.
RAGE antagonist FPS-ZM1: twice weekly 100 μl IP injections of FPS-ZM1 in PBS (Sigma Aldrich, France) at 0 (control group), 0.5, or 1 mg/kg b.w. were performed throughout the experiment.
Clinical score (Table 2) was continually observed from 15 to 50 minutes after oral allergen challenge and noted for each mouse. For analysis purposes, the average clinical score of the first 3 days of challenge is calculated for each mouse.
Experimental groups were compared by One-Way ANOVA, selected groups were compared using Holm-Sidak's correction for multiple comparisons. For diarrhoea data, pairwise comparisons of survival curves were performed and analysed by Mantel-Cox log-rank test.

peanut-specific IgE = assay: Peanut-specific IgE ELISA on serum from the peanut allergy model; assay type: in vivo, mouse; conditions: FOS-enriched diet, serum after last PE challenge
Protocol: On days 1, 7, and 21 mice were sensitized with 500 μg of peanut extract (PE) together with 2 mg of Imject alum (Thermo Fisher, France) by intraperitoneal (IP) injection (100 μl in PBS). Starting from day 35, for 7 days, mice were challenged with 30 mg of PE in NaHCO3 (0.1M) by oral gavage, and clinical score (Table 2) and occurrence of diarrhoea was registered for 1 hours after each gavage. After the last challenge, blood is collected for serum extraction. Non-allergic control animals were sham sensitized (2 mg alum but no peanut extract) but challenged like the other experimental groups. Peanut Extract (PE) was coated on ELISA plates at 5 μg/ml in 0.05 M sodium carbonate-bicarbonate buffer (Sigma-Aldrich, France) over-night at 4° C., plates were washed 3 times with PBS-0.05% Tween 20 (Sigma-Aldrich, France). […] Sample preparation: Mouse serum from blood collected 1 hour after the last oral peanut challenge was diluted 1/50 in ELISA assay buffer (1×) from the ELISA kit used. The colorimetric reaction was stopped by addition of H2SO4 (5M) and absorbance was recorded at 450 nm.

[1] = FPS-ZM1 0.5 or 1 mg/kg b.w. i.p. twice weekly
[2] = pyridoxamine 1 mg/ml in drinking water throughout

| Structure (SMILES) | FOS-induced aggravating effects in a mouse model of peanut allergy (peanut-sensitized mice; [1]) | clinical score (peanut-sensitized mice; [1]) | incidence of diarrhoea (peanut-sensitized mice; [1]) | allergen-specific IgE levels (peanut-specific IgE; [1]) | aggravating effects of the FOS-enriched diet on peanut allergic reactions (peanut-sensitized mice; [2]) | clinical score (peanut-sensitized mice; [2]) | incidence of diarrhoea (peanut-sensitized mice; [2]) | serum peanut-specific IgE levels (peanut-specific IgE; [2]) |
| --- | --- | --- | --- | --- | --- | --- | --- | --- |
| O=C(c1ccc(Cl)cc1)N(Cc1ccccc1)C1CCCCC1 [FPS-ZM1, 4-Chloro-N-cyclohexyl-N-(phenylmethyl)benzamide] | eliminates; also recorded: limit | lowering | lowering | lowering |  |  |  |  |
| Cc1ncc(CO)c(CN)c1O [pyridoxamine] |  |  |  |  | eliminates; also recorded: block | reduced | reduced | reduced |
